Paper PMC4703063, “Dual functionality of O-GlcNAc transferase is required for Drosophila development” (Open Biology, 2015)

Assays:
[1] = target: T1, Δ1–312 hOGT (Homo sapiens, UniProt O15294); experiment: radiometric transfer assay on RBL2 peptide, Ki from IC50 by Cheng-Prusoff; assay type: biochemical
T1 construct: gene OGT; N-terminally truncated, residues 1-312 removed (printed once as Δ1-313 beside the Ki); part of TPRs plus catalytic domain; recombinant
T1 sequence (O15294 323-1041): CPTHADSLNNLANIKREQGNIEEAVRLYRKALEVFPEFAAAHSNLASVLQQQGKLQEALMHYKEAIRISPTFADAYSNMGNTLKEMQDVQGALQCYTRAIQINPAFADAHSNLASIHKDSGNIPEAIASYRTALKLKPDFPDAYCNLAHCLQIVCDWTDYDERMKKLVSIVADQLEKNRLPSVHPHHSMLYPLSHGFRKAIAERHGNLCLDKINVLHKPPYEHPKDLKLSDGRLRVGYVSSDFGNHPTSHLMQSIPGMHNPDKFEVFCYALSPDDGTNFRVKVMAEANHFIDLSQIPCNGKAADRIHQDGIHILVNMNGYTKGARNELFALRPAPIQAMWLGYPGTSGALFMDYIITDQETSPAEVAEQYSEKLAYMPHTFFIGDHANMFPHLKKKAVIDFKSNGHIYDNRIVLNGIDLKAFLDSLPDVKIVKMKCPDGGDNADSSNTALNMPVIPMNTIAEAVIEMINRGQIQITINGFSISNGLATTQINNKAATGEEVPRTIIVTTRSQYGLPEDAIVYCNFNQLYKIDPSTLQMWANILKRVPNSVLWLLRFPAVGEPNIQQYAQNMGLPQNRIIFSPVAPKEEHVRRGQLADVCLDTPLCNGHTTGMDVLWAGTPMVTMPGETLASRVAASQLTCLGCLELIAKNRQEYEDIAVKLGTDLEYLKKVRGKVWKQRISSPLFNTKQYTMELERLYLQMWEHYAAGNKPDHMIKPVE

[2] = target: T2, Δ1–352 DmOGT (Drosophila melanogaster, UniProt Q7KJA9); experiment: as above; assay type: biochemical
T2 construct: gene sxc; N-terminally truncated construct starting at residue 353 in TPR 10 (part of TPRs plus catalytic domain); expressed in E. coli (ArcticExpress), purified as hOGT Δ1-312; wild type in kinetics, K872M in crystal
T2 sequence (Q7KJA9 353-1059): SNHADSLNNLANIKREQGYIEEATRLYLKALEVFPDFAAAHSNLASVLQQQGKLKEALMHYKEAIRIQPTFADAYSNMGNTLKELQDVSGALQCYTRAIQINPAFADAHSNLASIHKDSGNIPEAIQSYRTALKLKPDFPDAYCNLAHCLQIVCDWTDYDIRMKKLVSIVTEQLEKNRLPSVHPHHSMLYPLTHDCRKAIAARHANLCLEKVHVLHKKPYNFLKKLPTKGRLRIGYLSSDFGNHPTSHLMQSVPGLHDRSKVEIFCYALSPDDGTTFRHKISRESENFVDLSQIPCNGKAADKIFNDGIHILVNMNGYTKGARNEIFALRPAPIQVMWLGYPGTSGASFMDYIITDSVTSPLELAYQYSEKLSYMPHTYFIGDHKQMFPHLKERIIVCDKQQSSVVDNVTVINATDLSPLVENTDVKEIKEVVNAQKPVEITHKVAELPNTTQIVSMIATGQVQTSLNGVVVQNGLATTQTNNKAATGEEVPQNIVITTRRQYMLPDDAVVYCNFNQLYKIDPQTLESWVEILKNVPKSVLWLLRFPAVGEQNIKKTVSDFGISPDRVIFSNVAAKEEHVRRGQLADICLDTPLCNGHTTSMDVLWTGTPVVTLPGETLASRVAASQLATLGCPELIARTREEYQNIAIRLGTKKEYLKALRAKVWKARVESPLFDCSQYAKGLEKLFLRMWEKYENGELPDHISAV

[3] = target: T2, Δ1–352 DmOGT; experiment: radiometric transfer assay on RBL2 peptide, three-parameter dose-response fit; assay type: biochemical
[4] = target: T1, Δ1–312 hOGT; experiment: as above; assay type: biochemical
[5] = target: T3, Δ1–352 DmOGT (Drosophila melanogaster, UniProt Q7KJA9, K872M); experiment: X-ray crystallography (co-crystal, […] Å); assay type: binding; conditions: 3 mM UDP-5S-GlcNAc; pH 7.5 protein buffer; 21 °C
T3 construct: gene sxc; N-terminally truncated construct starting at residue 353 in TPR 10 (part of TPRs plus catalytic domain); expressed in E. coli (ArcticExpress), purified as hOGT Δ1-312; wild type in kinetics, K872M in crystal
T3 sequence (Q7KJA9 353-1059 K872M): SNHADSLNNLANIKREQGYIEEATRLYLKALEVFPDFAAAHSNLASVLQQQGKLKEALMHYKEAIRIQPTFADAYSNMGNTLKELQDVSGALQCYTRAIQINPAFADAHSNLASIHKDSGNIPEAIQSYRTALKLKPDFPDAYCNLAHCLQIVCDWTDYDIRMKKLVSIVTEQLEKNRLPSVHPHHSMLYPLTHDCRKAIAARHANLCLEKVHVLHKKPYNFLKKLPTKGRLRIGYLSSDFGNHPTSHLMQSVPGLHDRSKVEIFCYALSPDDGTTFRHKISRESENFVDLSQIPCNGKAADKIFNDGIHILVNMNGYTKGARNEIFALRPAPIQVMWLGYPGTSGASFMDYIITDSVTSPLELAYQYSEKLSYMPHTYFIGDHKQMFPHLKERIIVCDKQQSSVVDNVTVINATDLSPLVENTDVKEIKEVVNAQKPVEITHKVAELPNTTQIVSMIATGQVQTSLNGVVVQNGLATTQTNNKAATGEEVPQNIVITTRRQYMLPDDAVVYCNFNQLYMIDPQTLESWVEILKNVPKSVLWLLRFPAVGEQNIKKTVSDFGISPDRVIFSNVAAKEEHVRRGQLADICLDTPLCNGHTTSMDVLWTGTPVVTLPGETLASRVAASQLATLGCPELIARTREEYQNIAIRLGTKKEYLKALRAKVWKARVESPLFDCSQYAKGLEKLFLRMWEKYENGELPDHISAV

[6] = substrate: CC(=O)N[C@H]1[C@@H](OP(=O)(O)OP(=O)(O)OC[C@H]2O[C@@H](n3ccc(=O)[nH]c3=O)[C@H](O)[C@@H]2O)O[C@H](CO)[C@@H](O)[C@@H]1O; experiment: radiometric transfer assay on RBL2 peptide, Michaelis-Menten fit; assay type: biochemical, Homo sapiens; conditions: 0.25 mM RBL2 peptide …, UDP-[3H]-GlcNAc tracer, pH 7.5
[7] = substrate: CC(=O)N[C@H]1[C@@H](OP(=O)(O)OP(=O)(O)OC[C@H]2O[C@@H](n3ccc(=O)[nH]c3=O)[C@H](O)[C@@H]2O)O[C@H](CO)[C@@H](O)[C@@H]1O; experiment: as above; assay type: biochemical, Drosophila melanogaster; conditions: 0.25 mM RBL2 peptide …, UDP-[3H]-GlcNAc tracer, pH 7.5

For `CC(=O)N[C@@H]1[C@@H](O)[C@H](O)[C@@H](CO)S[C@@H]1OP(=O)(O)OP(=O)(O)OC[C@H]1O[C@@H](n2ccc(=O)[nH]c2=O)[C@H](O)[C@@H]1O` [UDP-5S-GlcNAc], the Ki [1] was 13.6 µM, the Ki [2] was 36.2 µM and the IC50 [3] was 68.3 µM. For the same molecule, the IC50 [4] was 24.6 µM and the “X-ray crystallography (co-crystal, 2.7 Å)” value [5] was “crystallized in complex with the inhibitor/substrate analogue UDP-5S-GlcNAc”.

B1: Δ1–312 hOGT (Homo sapiens) (protein)
chain: CPTHADSLNNLANIKREQGNIEEAVRLYRKALEVFPEFAAAHSNLASVLQQQGKLQEALMHYKEAIRISPTFADAYSNMGNTLKEMQDVQGALQCYTRAIQINPAFADAHSNLASIHKDSGNIPEAIASYRTALKLKPDFPDAYCNLAHCLQIVCDWTDYDERMKKLVSIVADQLEKNRLPSVHPHHSMLYPLSHGFRKAIAERHGNLCLDKINVLHKPPYEHPKDLKLSDGRLRVGYVSSDFGNHPTSHLMQSIPGMHNPDKFEVFCYALSPDDGTNFRVKVMAEANHFIDLSQIPCNGKAADRIHQDGIHILVNMNGYTKGARNELFALRPAPIQAMWLGYPGTSGALFMDYIITDQETSPAEVAEQYSEKLAYMPHTFFIGDHANMFPHLKKKAVIDFKSNGHIYDNRIVLNGIDLKAFLDSLPDVKIVKMKCPDGGDNADSSNTALNMPVIPMNTIAEAVIEMINRGQIQITINGFSISNGLATTQINNKAATGEEVPRTIIVTTRSQYGLPEDAIVYCNFNQLYKIDPSTLQMWANILKRVPNSVLWLLRFPAVGEPNIQQYAQNMGLPQNRIIFSPVAPKEEHVRRGQLADVCLDTPLCNGHTTGMDVLWAGTPMVTMPGETLASRVAASQLTCLGCLELIAKNRQEYEDIAVKLGTDLEYLKKVRGKVWKQRISSPLFNTKQYTMELERLYLQMWEHYAAGNKPDHMIKPVE
notes: N-terminally truncated, residues 1-312 removed (printed once as Δ1-313 beside the Ki); part of TPRs plus catalytic domain; recombinant
Molecule B1 has a Km [6] of 6.6 ± 0.3 µM.

B2: Δ1–352 DmOGT (Drosophila melanogaster) (protein)
chain: SNHADSLNNLANIKREQGYIEEATRLYLKALEVFPDFAAAHSNLASVLQQQGKLKEALMHYKEAIRIQPTFADAYSNMGNTLKELQDVSGALQCYTRAIQINPAFADAHSNLASIHKDSGNIPEAIQSYRTALKLKPDFPDAYCNLAHCLQIVCDWTDYDIRMKKLVSIVTEQLEKNRLPSVHPHHSMLYPLTHDCRKAIAARHANLCLEKVHVLHKKPYNFLKKLPTKGRLRIGYLSSDFGNHPTSHLMQSVPGLHDRSKVEIFCYALSPDDGTTFRHKISRESENFVDLSQIPCNGKAADKIFNDGIHILVNMNGYTKGARNEIFALRPAPIQVMWLGYPGTSGASFMDYIITDSVTSPLELAYQYSEKLSYMPHTYFIGDHKQMFPHLKERIIVCDKQQSSVVDNVTVINATDLSPLVENTDVKEIKEVVNAQKPVEITHKVAELPNTTQIVSMIATGQVQTSLNGVVVQNGLATTQTNNKAATGEEVPQNIVITTRRQYMLPDDAVVYCNFNQLYKIDPQTLESWVEILKNVPKSVLWLLRFPAVGEQNIKKTVSDFGISPDRVIFSNVAAKEEHVRRGQLADICLDTPLCNGHTTSMDVLWTGTPVVTLPGETLASRVAASQLATLGCPELIARTREEYQNIAIRLGTKKEYLKALRAKVWKARVESPLFDCSQYAKGLEKLFLRMWEKYENGELPDHISAV
notes: N-terminally truncated construct starting at residue 353 in TPR 10 (part of TPRs plus catalytic domain); expressed in E. coli (ArcticExpress), purified as hOGT Δ1-312; wild type in kinetics, K872M in crystal
With B2 the Km [7] was 17.8 ± 0.7 µM.
